Laboratory results as given in ChEMBL document CHEMBL5500344, “Design, synthesis and biological evaluation of matrine contains benzimidazole derivatives as dual TOPOI and PARP inhibitors for cancer therapy” (Eur J Med Chem, 2024).
pIC50: −log10 of the molar value. Each block holds one molecule with its values, some of them ahead of it. Calls of active or inactive are those of the source. The calls are words filed in the database; no cut-off is given here.

Key:
HeLa = experiment: Antiproliferative activity against human HeLa cells assessed as inhibition of cell growth incubated for 48 hrs by MTT assay; assay type: functional, cell-based
A549 = experiment: Antiproliferative activity against human A549 cells assessed as inhibition of cell growth incubated for 48 hrs by MTT assay; assay type: functional, cell-based; conditions: A549, 48 h
[1] = biological target: T1, DNA topoisomerase 1 (Homo sapiens) (UniProt P11387); experiment: Inhibition of human topoisomerase 1 assessed as relaxation of supercoiled pBR322 plasmid DNA at 100 uM incubated for 10 to 15 mins by EtBr staining based agarose gel electrophoresis method; conditions: time 10-15 min
T1 sequence (whole entry): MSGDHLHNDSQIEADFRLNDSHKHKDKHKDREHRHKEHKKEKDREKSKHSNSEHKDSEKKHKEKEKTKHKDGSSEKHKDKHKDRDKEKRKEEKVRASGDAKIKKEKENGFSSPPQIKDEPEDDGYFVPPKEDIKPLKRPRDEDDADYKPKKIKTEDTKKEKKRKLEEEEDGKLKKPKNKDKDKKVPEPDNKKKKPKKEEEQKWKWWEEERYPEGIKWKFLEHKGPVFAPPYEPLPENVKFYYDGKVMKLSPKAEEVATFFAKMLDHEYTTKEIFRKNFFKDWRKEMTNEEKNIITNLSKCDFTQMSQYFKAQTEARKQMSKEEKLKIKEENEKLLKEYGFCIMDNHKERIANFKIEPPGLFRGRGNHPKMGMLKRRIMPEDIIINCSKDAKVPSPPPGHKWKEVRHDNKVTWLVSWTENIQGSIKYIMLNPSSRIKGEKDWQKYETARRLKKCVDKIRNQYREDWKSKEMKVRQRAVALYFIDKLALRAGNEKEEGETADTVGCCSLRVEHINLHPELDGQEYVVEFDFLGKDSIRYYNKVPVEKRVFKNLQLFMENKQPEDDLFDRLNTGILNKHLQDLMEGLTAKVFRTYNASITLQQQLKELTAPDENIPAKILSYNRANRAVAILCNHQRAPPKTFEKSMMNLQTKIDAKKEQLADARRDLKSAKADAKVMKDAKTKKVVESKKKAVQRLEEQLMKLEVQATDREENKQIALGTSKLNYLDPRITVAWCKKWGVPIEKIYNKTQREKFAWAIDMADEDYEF

[2] = biological target: Poly [ADP-ribose] polymerase 1 (Homo sapiens, UniProt P09874); experiment: Inhibition of PARP-1 (unknown origin) incubated for 70 mins by HT universal chemiluminescent assay
L02 = experiment: Antiproliferative activity against human L02 cells assessed as inhibition of cell growth incubated for 48 hrs by MTT assay; assay type: functional, cell-based; conditions: L02, 48 h
HepG2 = experiment: Antiproliferative activity against human HepG2 cells assessed as inhibition of cell growth incubated for 48 hrs by MTT assay; assay type: functional, cell-based; conditions: HepG2, 48 h
HGC-27 [3] = experiment: Antiproliferative activity against human HGC-27 cells assessed as inhibition of cell growth incubated for 48 hrs by MTT assay; assay type: functional, cell-based; conditions: HGC-27, 48 h, read-out: IC50
HGC-27 [4] = experiment: Induction of DNA damage in human HGC-27 cells assessed as upregulation of gamma-H2AX expression incubated for 48 hrs by Western blotting analysis; assay type: functional, cell-based
HGC-27 [5] = experiment: Induction of apoptosis in human HGC-27 cells assessed as necrotic cells at 5 uM incubated for 24 hrs by annexin V-FITC/PI satining based flow cytometry (reference value: 0.13 %); assay type: functional
HGC-27 [6] = experiment: Induction of apoptosis in human HGC-27 cells at 5 uM incubated for 24 hrs by annexin V-FITC/PI satining based flow cytometry relative to control; assay type: functional
[7] = Acute toxicity in BALB/c mouse xenografted with human HGC-27 cells assessed as change in body weight at 40 mg/kg,ip administrated every other day for 17 days; assay type: organism-based; conditions: in vivo, 408 h, time 17 day
HGC-27 [8] = experiment: Induction of DNA damage in human HGC-27 cells assessed as upregulation of p53 expression incubated for 48 hrs by Western blotting analysis; assay type: functional, cell-based
HGC-27 [9] = experiment: Induction of apoptosis in human HGC-27 cells assessed as upregulation of Bax expression incubated for 48 hrs by Western blotting analysis; assay type: functional, cell-based
HGC-27 [10] = experiment: Induction of apoptosis in human HGC-27 cells assessed as upregulation of caspase-3 expression incubated for 48 hrs by Western blotting analysis; assay type: functional, cell-based
HGC-27 [11] = experiment: Induction of apoptosis in human HGC-27 cells assessed as late apoptotic cells at 5 uM incubated for 24 hrs by annexin V-FITC/PI satining based flow cytometry (reference value: 0.32 %); assay type: functional
HGC-27 [12] = experiment: Induction of apoptosis in human HGC-27 cells assessed as necrotic cells at 1.25 uM incubated for 24 hrs by annexin V-FITC/PI satining based flow cytometry (reference value: 0.13 %); assay type: functional
HGC-27 [13] = experiment: Induction of apoptosis in human HGC-27 cells assessed as upregulation of cleaved PARP expression incubated for 48 hrs by Western blotting analysis; assay type: functional, cell-based
[14] = biological target: T1, DNA topoisomerase 1 (Homo sapiens); experiment: Inhibition of human topoisomerase 1 assessed as relaxation of supercoiled pBR322 plasmid DNA incubated for 10 to 15 mins by EtBr staining based agarose gel electrophoresis method; conditions: time 10-15 min
HGC-27 [15] = experiment: Induction of apoptosis in human HGC-27 cells assessed as downregulation of PARP expression incubated for 48 hrs by Western blotting analysis; assay type: functional, cell-based
HGC-27 [16] = experiment: Induction of apoptosis in human HGC-27 cells assessed as viable cells at 5 uM incubated for 24 hrs by annexin V-FITC/PI satining based flow cytometry (reference value: 95.3 %); assay type: functional; conditions: read-out: Activity
HGC-27 [17] = experiment: Antitumor activity against human HGC-27 cells xenografted in BALB/c mouse assessed as tumor growth inhibition at 40 mg/kg,ip administrated every other day for 17 days relative to control; assay type: functional; conditions: HGC-27, 408 h, time 17 day, read-out: TGI
HGC-27 [18] = experiment: Induction of apoptosis in human HGC-27 cells assessed as downregulation of Bcl-2 expression incubated for 48 hrs by Western blotting analysis; assay type: functional, cell-based
HGC-27 [19] = experiment: Induction of cell cycle arrest in human HGC-27 cells assessed as accumulation of cells at G0/G1 phase at 5 uM incubated for 48 hrs by flow cytometry relative to control; assay type: functional
HGC-27 [20] = experiment: Induction of apoptosis in human HGC-27 cells assessed as late apoptotic cells at 1.25 uM incubated for 24 hrs by annexin V-FITC/PI satining based flow cytometry (reference value: 0.32 %); assay type: functional
HGC-27 [21] = experiment: Induction of cell cycle arrest in human HGC-27 cells assessed as accumulation of cells at G0/G1 phase at 1.25 uM incubated for 48 hrs by flow cytometry relative to control; assay type: functional
HGC-27 [22] = experiment: Induction of apoptosis in human HGC-27 cells at 1.25 uM incubated for 24 hrs by annexin V-FITC/PI satining based flow cytometry relative to control; assay type: functional
HGC-27 [23] = experiment: Induction of apoptosis in human HGC-27 cells assessed as late apoptotic cells at 2.5 uM incubated for 24 hrs by annexin V-FITC/PI satining based flow cytometry (reference value: 0.32 %); assay type: functional
HGC-27 [24] = experiment: Induction of apoptosis in human HGC-27 cells assessed as early apoptotic cells at 1.25 uM incubated for 24 hrs by annexin V-FITC/PI satining based flow cytometry (reference value: 4.2 %); assay type: functional
HGC-27 [25] = experiment: Induction of apoptosis in human HGC-27 cells assessed as upregulation of cleaved caspase-3 expression incubated for 48 hrs by Western blotting analysis; assay type: functional, cell-based
HGC-27 [26] = experiment: Induction of apoptosis in human HGC-27 cells assessed as viable cells at 1.25 uM incubated for 24 hrs by annexin V-FITC/PI satining based flow cytometry (reference value: 95.3 %); assay type: functional; conditions: read-out: Activity
HGC-27 [27] = experiment: Induction of apoptosis in human HGC-27 cells assessed as early apoptotic cells at 5 uM incubated for 24 hrs by annexin V-FITC/PI satining based flow cytometry (reference value: 4.2 %); assay type: functional
HGC-27 [28] = experiment: Induction of apoptosis in human HGC-27 cells assessed as viable cells at 2.5 uM incubated for 24 hrs by annexin V-FITC/PI satining based flow cytometry (reference value: 95.3 %); assay type: functional; conditions: read-out: Activity
HGC-27 [29] = experiment: Induction of apoptosis in human HGC-27 cells at 2.5 uM incubated for 24 hrs by annexin V-FITC/PI satining based flow cytometry relative to control; assay type: functional
HGC-27 [30] = experiment: Induction of DNA damage in human HGC-27 cells assessed as upregulation of p53 phoshorylation incubated for 48 hrs by Western blotting analysis; assay type: functional, cell-based
HGC-27 [31] = experiment: Induction of apoptosis in human HGC-27 cells assessed as early apoptotic cells at 2.5 uM incubated for 24 hrs by annexin V-FITC/PI satining based flow cytometry (reference value: 4.2 %); assay type: functional
HGC-27 [32] = experiment: Induction of apoptosis in human HGC-27 cells assessed as necrotic cells at 2.5 uM incubated for 24 hrs by annexin V-FITC/PI satining based flow cytometry (reference value: 0.13 %); assay type: functional
HGC-27 [33] = experiment: Induction of cell cycle arrest in human HGC-27 cells assessed as accumulation of cells at G0/G1 phase at 2.5 uM incubated for 48 hrs by flow cytometry relative to control; assay type: functional
HGC-27 [34] = experiment: Inhibition of colony formation in human HGC-27 cells incubated for 48 hrs by crystal violet staining based microscopic analysis; assay type: functional, cell-based
HGC-27 [35] = experiment: Inhibition of cell migration in human HGC-27 cells incubated upto 72 hrs by scratch wound healing based microscopic analysis; assay type: functional

Sequence of Poly [ADP-ribose] polymerase 1 (P09874 whole entry): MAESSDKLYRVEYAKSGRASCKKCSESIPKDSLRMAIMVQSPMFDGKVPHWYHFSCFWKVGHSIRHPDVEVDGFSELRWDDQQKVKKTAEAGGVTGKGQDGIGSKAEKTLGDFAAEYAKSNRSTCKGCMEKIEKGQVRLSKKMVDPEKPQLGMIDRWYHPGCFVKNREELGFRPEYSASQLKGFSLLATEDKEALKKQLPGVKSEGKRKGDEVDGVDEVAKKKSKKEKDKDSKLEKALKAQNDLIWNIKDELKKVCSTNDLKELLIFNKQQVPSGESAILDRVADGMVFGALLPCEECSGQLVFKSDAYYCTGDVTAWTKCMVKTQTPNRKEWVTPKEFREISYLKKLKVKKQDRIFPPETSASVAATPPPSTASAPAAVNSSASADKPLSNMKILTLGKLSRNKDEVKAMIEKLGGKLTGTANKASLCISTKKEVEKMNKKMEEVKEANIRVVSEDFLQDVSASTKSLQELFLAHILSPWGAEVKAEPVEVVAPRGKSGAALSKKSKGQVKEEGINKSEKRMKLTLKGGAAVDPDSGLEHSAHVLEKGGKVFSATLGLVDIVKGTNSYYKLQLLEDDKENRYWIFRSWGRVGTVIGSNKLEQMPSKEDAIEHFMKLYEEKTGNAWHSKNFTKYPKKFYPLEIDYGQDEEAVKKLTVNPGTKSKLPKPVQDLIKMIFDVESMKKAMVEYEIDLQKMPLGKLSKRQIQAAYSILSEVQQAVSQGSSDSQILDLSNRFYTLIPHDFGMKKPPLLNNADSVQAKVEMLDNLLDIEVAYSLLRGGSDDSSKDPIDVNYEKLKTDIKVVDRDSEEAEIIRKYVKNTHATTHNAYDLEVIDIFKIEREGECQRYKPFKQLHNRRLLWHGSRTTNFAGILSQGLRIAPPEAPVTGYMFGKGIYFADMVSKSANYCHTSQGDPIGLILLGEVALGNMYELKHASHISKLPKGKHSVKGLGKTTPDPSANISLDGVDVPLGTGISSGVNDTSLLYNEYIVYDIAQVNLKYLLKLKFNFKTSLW

pIC50 (HeLa): 4.79
pIC50 (A549): 4.91
inhibition [1]: Active
pIC50 [2]: 5.59
pIC50 (HepG2): 5.19
Compound: O=C(CCC[C@@H]1[C@H]2CCCN3CCC[C@@H](CN1C(=O)OCC1c4ccccc4-c4ccccc41)[C@@H]23)Nc1nc2ccccc2[nH]1
pIC50 (L02): < 4.19
pIC50 (HGC-27 [3]): 5.13

Compound: O=C(OCC1c2ccccc2-c2ccccc21)N1C[C@@H]2CCCN3CCC[C@@H]([C@H]23)[C@H]1CCCc1nc2cc(Br)c(Br)cc2[nH]1
Activity (HGC-27 [4]): Dose-Dependent Effect
Activity (HGC-27 [5]): 1.42%
Activity (HGC-27 [6]): 76%
Activity [7]: Toxic
Activity (HGC-27 [8]): Dose-Dependent Effect
Activity (HGC-27 [9]): Dose-Dependent Effect
pIC50 (HeLa): 5.14
Activity (HGC-27 [10]): Dose-Dependent Effect
pIC50 (A549): 5.02
Activity (HGC-27 [11]): 8.01%
Activity (HGC-27 [12]): 0.37%
pIC50 [2]: 7.05
Activity (HGC-27 [13]): Dose-Dependent Effect
inhibition [14]: Dose-Dependent Effect
Activity (HGC-27 [15]): Dose-Dependent Effect
viability at 5 µM (HGC-27 [16]): 18.1%
inhibition in vivo at 40 mg/kg (HGC-27 [17]): 75.4%
Activity (HGC-27 [18]): Dose-Dependent Effect
Activity (HGC-27 [19]): 74%
Activity (HGC-27 [20]): 1.79%
Activity (HGC-27 [21]): 66%
Activity (HGC-27 [22]): 15.5%
Activity (HGC-27 [23]): 7%
Activity (HGC-27 [24]): 17.2%
pIC50 (L02): < 4.19
pIC50 (HepG2): 5.42
Activity (HGC-27 [25]): Dose-Dependent Effect
pIC50 (HGC-27 [3]): 5.60
viability at 1.25 µM (HGC-27 [26]): 80.7%
Activity (HGC-27 [27]): 72.5%
viability at 2.5 µM (HGC-27 [28]): 51.7%
Activity (HGC-27 [29]): 43.1%
Activity (HGC-27 [30]): Dose-Dependent Effect
Activity (HGC-27 [31]): 40.6%
Activity (HGC-27 [32]): 0.6%
Activity (HGC-27 [33]): 70%
inhibition (HGC-27 [34]): Dose-Dependent Effect
inhibition (HGC-27 [35]): Dose-Dependent Effect

pIC50 (HeLa): 4.96
pIC50 (A549): 4.77
pIC50 [2]: 4.86
pIC50 (HepG2): 5.16
Compound: O=S(=O)(c1cccc2ccccc12)N1C[C@@H]2CCCN3CCC[C@@H]([C@H]23)[C@H]1CCCc1nc2cc(F)ccc2n1S(=O)(=O)c1cccc2ccccc12
pIC50 (L02): < 4.19
pIC50 (HGC-27 [3]): 5.12

pIC50 (HeLa): 5.07
pIC50 (A549): 4.88
inhibition [1]: Active
pIC50 [2]: 6.55
pIC50 (HepG2): 4.96
Compound: O=C(OCC1c2ccccc2-c2ccccc21)N1C[C@@H]2CCCN3CCC[C@@H]([C@H]23)[C@H]1CCCc1nc2cc(Cl)c(Cl)cc2[nH]1
pIC50 (L02): < 4.19
pIC50 (HGC-27 [3]): 5.01
